Columns and labels:
rituximab = conditions: forward and reverse sequences; not bound by other anti-CD20 mAbs; cited from earlier work
Text: The peptide […] from the resem ...

rituximab (RTX) = experiment: First screen of the resemblance-ranking peptide library with RTX, fluorescent immunostaining; format: binding; conditions: RTX 30 µg/mL; among 160,000 peptides
Method: Peptide microarrays: A peptide library of 160,000, peptides as well other peptide microarrays for the substitutions and the KD analysis, were fabricated via the ultra-high-density peptide microarray technology of AXXELERA (Karlsruhe, Germany) [49]. The AXXELERA technology allows for the 30 µm-sized square peptide spots with a pitch of 60 µm that corresponds to ca. 28,000 spots/cm^2.
Immunostaining: Peptide microarrays were incubated with the monoclonal anti-CD20 antibody rituximab (Sigma-Aldrich, Steinheim, Germany) with concentrations depending on the type of experiment, diluted in PBS-T (Phosphate Buffered Saline with Tween) overnight at 4 °C. A rituximab concentration of 30 µg/mL was used for the first screen of the entire resemblance-ranking peptide library. Then, the peptide chips were stained with the fluorescently labeled secondary anti-human-IgG antibodies (Jackson ImmunoResearch, Philadelphia, PA, USA). The signals from the spots were read out with the confocal scanner Innoscan 1100 AL. The scans were performed in the red channel (635 nm), with a resolution of 2 µm/pixel, a speed of 35 µm/s, and a PMT gain of 9.

| Substance | binding to rituximab (rituximab) | ratio to the maximum signal value (rituximab (RTX)) |
| --- | --- | --- |
| ELWKPW | bind rituximab |  |
| LWKPWLQPCC |  | 0.13 |
| WPKWLE | bind rituximab |  |

Reference: PMC8999133, “Resemblance-Ranking Peptide Library to Screen for Binders to Antibodies on a Peptidomic Scale” (International Journal of Molecular Sciences, 2022)
